This is an account of results in BindingDB's records for doi:10.1111/cbdd.12142 (Delhi Institute of Pharmaceutical Sciences and Research, 2013).

As a reminder, the IC50 is the concentration that gives 50% inhibition.

In the experiment the target is Dipeptidyl peptidase 4 (Homo sapiens, UniProt P27487). Nature of the experiment: In vitro DPP IV enzyme inhibition assay. As to conditions: 37 °C. As for the experimental part: Following the manufacturer's guidelines, the assay was performed using 96-well flat-bottomed microtitre plate followed by addition of assay buffer, DPP IV enzyme and chromogenic substrate (HGly-Pro-pNA). Test compounds were dissolved in DMSO at different concentrations of 25, 50, 100, 200 µg/mL, and 20 µL were added to each well after further dilutions. The plate was incubated at 37°C for 10 min and read continuously at A-405 nm.
Sequence of Dipeptidyl peptidase 4 (P27487 whole entry): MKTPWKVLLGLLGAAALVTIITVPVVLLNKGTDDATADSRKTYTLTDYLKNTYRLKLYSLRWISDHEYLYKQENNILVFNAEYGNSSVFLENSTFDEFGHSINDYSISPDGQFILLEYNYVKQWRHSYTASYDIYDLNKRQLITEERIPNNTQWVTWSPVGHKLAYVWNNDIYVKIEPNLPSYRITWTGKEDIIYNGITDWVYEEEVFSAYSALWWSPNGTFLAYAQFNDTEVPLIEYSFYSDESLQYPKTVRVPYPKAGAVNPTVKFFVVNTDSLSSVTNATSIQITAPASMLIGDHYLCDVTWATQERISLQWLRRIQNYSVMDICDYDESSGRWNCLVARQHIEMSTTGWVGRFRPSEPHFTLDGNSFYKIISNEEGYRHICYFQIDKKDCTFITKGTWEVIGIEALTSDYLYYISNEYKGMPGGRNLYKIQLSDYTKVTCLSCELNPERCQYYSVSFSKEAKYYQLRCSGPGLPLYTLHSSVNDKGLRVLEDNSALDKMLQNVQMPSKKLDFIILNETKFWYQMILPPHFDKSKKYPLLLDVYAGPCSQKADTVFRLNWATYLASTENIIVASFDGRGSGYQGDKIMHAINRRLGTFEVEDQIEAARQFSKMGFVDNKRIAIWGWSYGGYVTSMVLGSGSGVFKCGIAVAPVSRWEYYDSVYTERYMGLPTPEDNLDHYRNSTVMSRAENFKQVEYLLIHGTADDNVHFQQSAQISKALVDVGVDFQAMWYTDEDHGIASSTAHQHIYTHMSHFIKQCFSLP
For `O=C(CN1CCCC1C(=O)N1CCC(F)C1)N1CCCCCC1` (centres undefined) [1‐(azepan‐1‐yl)‐2‐[2‐(3‐fluoropyrrolidine‐1‐ carbonyl)pyrrolidin‐1‐yl]ethan‐1‐one], half-maximal inhibition (IC50) was put at 3.47 µM.

The compound `O=C(C1CCCN1CCN1CCCCC1)N1CCC(F)C1` (centres undefined) [1‐{2‐[2‐(3‐fluoropyrrolidine‐1‐carbonyl)pyrrolidin‐1‐ yl]ethyl}piperidine] came in with an IC50 of 6.49 µM.

In turn, `O=C(CN1CCCC1C(=O)N1CCC(F)C1)N1CCCCC1` (centres undefined) [2‐[2‐(3‐fluoropyrrolidine‐1‐carbonyl)pyrrolidin‐1‐ yl]‐1‐(piperidin‐1‐yl)ethan‐1‐one] yielded a concentration for half-maximal inhibition (IC50) of 7.88 µM.

Take `O=C(CN1CCCC1C(=O)N1CCC(F)C1)N1CCCC1` (centres undefined) [2‐[2‐(3‐fluoropyrrolidine‐1‐carbonyl)pyrrolidin‐1‐ yl]‐1‐(pyrrolidin‐1‐yl)ethan‐1‐one]: the half-inhibitory concentration (IC50) came out at 16.7 µM.

`O=C(CN1CCCC1C(=O)N1CCC(F)C1)N1CCN(c2ccccn2)CC1` (centres undefined) [2‐[2‐(3‐fluoropyrrolidine‐1‐carbonyl)pyrrolidin‐1‐ yl]‐1‐[4‐(pyridin‐2‐yl)piperazin‐1‐yl]ethan‐1‐one] displayed an IC50 of 0.83 µM.

As for `O=C(CN1CCCC1C(=O)N1CCC(F)C1)N1CCN(c2ncccn2)CC1` (centres undefined) [2‐[2‐(3‐fluoropyrrolidine‐1‐carbonyl)pyrrolidin‐1‐ yl]‐1‐[4‐(pyrimidin‐2‐yl)piperazin‐1‐yl]ethan‐1‐ one], the IC50 was found to be 0.43 µM.

The compound `O=C(C1CCCN1)N1CCC(F)C1` (centres undefined) [3‐fluoro‐1‐(pyrrolidine‐2‐carbonyl)pyrrolidine] displayed an IC50 of 4.27 µM.

`CCN(CC)CCN1CCCC1C(=O)N1CCC(F)C1` (centres undefined) [diethyl({2‐[2‐(3‐fluoropyrrolidine‐1‐ carbonyl)pyrrolidin‐1‐yl]ethyl})amine] yielded a half-maximal inhibitory concentration (IC50) of 23.8 µM.

In turn, `CN(C)CCN1CCCC1C(=O)N1CCC(F)C1` (centres undefined) [{2‐[2‐(3‐fluoropyrrolidine‐1‐carbonyl)pyrrolidin‐1‐ yl]ethyl}dimethylamine] yielded a 50% inhibitory concentration (IC50) of 30.2 µM.
